As a reminder, the IC50 is the concentration that inhibits the measured activity by half. As usually defined, the EC50 is the concentration needed to bring the measured effect to its halfway point.

T2 sequence (Q05397 whole entry): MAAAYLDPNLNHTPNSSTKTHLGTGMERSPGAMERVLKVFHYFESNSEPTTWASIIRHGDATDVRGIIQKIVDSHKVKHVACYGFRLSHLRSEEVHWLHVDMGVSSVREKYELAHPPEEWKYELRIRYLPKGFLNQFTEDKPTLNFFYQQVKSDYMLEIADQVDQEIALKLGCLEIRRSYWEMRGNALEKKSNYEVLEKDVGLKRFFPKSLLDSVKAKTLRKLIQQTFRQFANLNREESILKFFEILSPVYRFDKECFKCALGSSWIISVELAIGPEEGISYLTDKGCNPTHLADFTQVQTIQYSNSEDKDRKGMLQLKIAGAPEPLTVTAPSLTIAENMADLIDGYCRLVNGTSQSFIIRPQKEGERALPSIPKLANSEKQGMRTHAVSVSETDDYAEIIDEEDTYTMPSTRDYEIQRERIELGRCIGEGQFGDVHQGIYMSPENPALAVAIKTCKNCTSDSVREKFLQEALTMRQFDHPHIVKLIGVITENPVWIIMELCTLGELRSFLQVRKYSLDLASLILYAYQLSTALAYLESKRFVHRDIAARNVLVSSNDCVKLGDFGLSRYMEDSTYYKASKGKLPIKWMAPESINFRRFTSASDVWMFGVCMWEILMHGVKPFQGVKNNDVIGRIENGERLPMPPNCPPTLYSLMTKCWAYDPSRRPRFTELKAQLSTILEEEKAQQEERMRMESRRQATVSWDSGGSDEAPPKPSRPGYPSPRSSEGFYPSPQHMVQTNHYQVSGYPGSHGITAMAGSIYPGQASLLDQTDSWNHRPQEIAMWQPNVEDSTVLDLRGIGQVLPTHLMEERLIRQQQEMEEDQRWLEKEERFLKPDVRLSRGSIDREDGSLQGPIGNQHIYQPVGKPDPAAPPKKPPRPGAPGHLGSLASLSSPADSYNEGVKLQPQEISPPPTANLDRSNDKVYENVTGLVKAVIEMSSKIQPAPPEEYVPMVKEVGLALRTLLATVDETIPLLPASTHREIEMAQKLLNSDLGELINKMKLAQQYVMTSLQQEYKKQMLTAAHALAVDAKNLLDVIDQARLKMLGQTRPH

The target in the first assay is T1, PTK2 (Homo sapiens, UniProt Q05397).
T1 construct: purchased Invitrogen PV3832
T1 sequence (Q05397 whole entry): as above
Briefly: PTK2 Enzyme Test (DELFIA assay, poly-Glu-Tyr substrate). The format is biochemical. The note with it: active PTK2 enzyme, 50 μM ATP in ATP Mix, 1 h pre-incubation. How it is done:
This test uses active PTK2 enzyme (Invitrogen Code PV3832) and poly-Glu-Tyr (4:1, Sigma P-0275) as the kinase substrate. The kinase activity is detected by means of the phosphorylation of the substrate in a DELFIA™ assay. The phosphorylated substrate is detected with the Europium-labelled phosphotyrosine antibody PY20 (Perkin Elmer, No.: AD0038).
In order to determine concentration-activity curves with PTK2-inhibitors the compounds are serially diluted in 10% DMSO/H2O and 10 μL of each dilution are dispensed per well in a 96-well microtitre plate (clear U-shaped base plate, Greiner No. 650101) (the inhibitors are tested in duplicates) and mixed with 10 μL/well of PTK2 kinase (0.01 μg/well). PTK2 kinase is diluted accordingly beforehand with kinase dilution buffer (20 mM TRIS/HCl pH 7.5, 0.1 mM EDTA, 0.1 mM EGTA, 0.286 mM sodium orthovanadate, 10% glycerol with the addition of freshly prepared BSA (fraction V 1 mg/mL) and DTT (1 mM)). The test compound and the PTK2 kinase are pre-incubated for 1 h at RT and shaken at 500 rpm. Then 20 μL ATP Mix (30 mM TRIS/HCl pH 7.5, 0.02% Brij, 0.2 mM sodium orthovanadate, 10 mM magnesium acetate, 0.1 mM EGTA, 1× Phosphatase Inhibitor Cocktail 1 (Sigma, No.: P2850), 50 μM ATP (Sigma, No.: A3377; 15 mM stock solution)) are added. The reaction is started by the addition of 10 μL/well of poly (Glu,Tyr) substrate (25 μg/well poly (Glu,Tyr), 0.05 μg/well biotinylated poly (Glu,Tyr) dissolved in 250 mM TRIS/HCl pH 7.5, 9 mM DTT)—the final concentration of DMSO is 2%. After 1 h kinase reaction (the plates are shaken at 500 rpm), the reaction is stopped by the addition of 12 μL/well of 100 mM EDTA, pH 8. And shaken for a further 5 min at RT (500 U/min).
55 μL of the reaction mixture are transferred into a streptavidin plate (Strepta Well High Bind (transparent, 96-well) made by Roche, No.: 11989685001) and incubated for 1 h at RT (shaking at 500 rpm). Then the microtitre plate is washed three times with 200 μL/well D-PBS (Invitrogen, No.:14190). 100 μL of 1:2000 diluted DELFIA Eu-N1 Anti-Phosphotyrosine PY20 antibody (Perkin Elmer, No.: AD0038, 1:2000 diluted in DELFIA test buffer (Perkin Elmer, No.: 1244-111)) is then added and it is incubated for 1 h at RT (shaking at 500 rpm). Then the plate is washed three times with 200 μL/well DELFIA washing buffer (Perkin Elmer, No.: 1244-114), 200 μL/well strengthening solution (Perkin Elmer, No.: 1244-105) is added and the whole is incubated for 10 min at RT (shaking at 300 rpm).
The time-delayed europium fluorescence is then measured in a microtitre plate reader (Victor, Perkin Elmer). The positive control consists of wells that contain solvent (2% DMSO in test buffer) and display uninhibited kinase activity. Wells that contain test buffer instead of enzyme act as a control for the background kinase activity.
The IC50 values are determined from concentration-activity analyses by iterative calculation using a sigmoidal curve analysis algorithm (FIFTY, based on GraphPAD Prism Version 3.03) with a variable Hill coefficient.
For the compound `COc1cc(C(=O)N[C@H]2CCCN(C3CCOCC3)C2)ccc1Nc1ncc(C(F)(F)F)c(NCc2ccc(C)cc2N(C)S(C)(=O)=O)n1` [Example 53], half-maximal inhibition (IC50) was put at 5 nM. In other words, the single-digit nanomolar range.

`COc1cc(C(=O)NC2CCC3C(CCN3C)C2)ccc1Nc1ncc(C(F)(F)F)c(NCc2ccc(C)cc2N(C)S(C)(=O)=O)n1` (centres unmarked) [Example 26] registered an IC50 of 3 nM.

In the case of `COc1cc(C(=O)NC2CC(N3CCN(CC4CC4)CC3)C2)ccc1Nc1ncc(C(F)(F)F)c(NCc2ccc(C)cc2N(C)S(C)(=O)=O)n1` (centres unmarked) [Example 97], the midpoint of inhibition, the IC50, lay at 3 nM.

For the compound `COc1cc(C(=O)NC2CCN(C(C)C)CC2)ccc1Nc1ncc(C(F)(F)F)c(NCc2ccc(C)cc2N(C)S(C)(=O)=O)n1` [Example 15], the midpoint of inhibition, the IC50, lay at 3 nM.

As to `CCN(CC)CCNC(=O)c1ccc(Nc2ncc(C(F)(F)F)c(NCc3ccc(C)cc3N(C)S(C)(=O)=O)n2)c(OC)c1` [Example 12], inhibition was half-maximal at 2 nM (IC50). Against the preceding compound, the IC50 is about 1.5-fold lower.

`CCc1cc(C(=O)NC2CCN(C)CC2)ccc1Nc1ncc(C(F)(F)F)c(NCc2ccc(C)cc2N(C)S(C)(=O)=O)n1` [Example 50] had an IC50 of 2 nM. That is a single-digit nanomolar value.

`CC(=O)Nc1ccc(Nc2ncc(C(F)(F)F)c(NCc3ccc(C)cc3N(C)S(C)(=O)=O)n2)cc1Cl` [Example 104] came in with an IC50 of 2 nM.

Take `COc1ccc(CNc2nc(Nc3ccc(NC(C)=O)c(Cl)c3)ncc2C(F)(F)F)c(N(C)S(C)(=O)=O)c1` [Example 105]: half-maximal inhibition (IC50) required 2 nM.

As to `COc1cc(C(=O)NC2CCC(N(C)C)CC2)ccc1Nc1ncc(C(F)(F)F)c(NCc2ccc(C)cc2N(C)S(C)(=O)=O)n1` (centres unmarked) [Example 51], the IC50 came to 1 nM.

Compound `Cc1ccc(CNc2nc(Nc3ccc(C(=O)NC4CCN(C)CC4)cc3C)ncc2C(F)(F)F)c(N(C)S(C)(=O)=O)c1` [Example 80] yielded an IC50 of 0.98 nM. This IC50 and that of the compound before are within 1.5-fold of each other.

Consider `COc1cc(C(=O)NC2CCN(C3CC3)CC2)ccc1Nc1ncc(C(F)(F)F)c(NCc2ccc(C)cc2N(C)S(C)(=O)=O)n1` [Example 38], for which the IC50 came to 4 nM. This IC50 lies about 4.1-fold higher than the previous one.

`COc1cc(C(=O)N[C@H]2CC[C@H](N3C[C@@H](C)O[C@@H](C)C3)CC2)ccc1Nc1ncc(C(F)(F)F)c(NCc2ccc(C)cc2N(C)S(C)(=O)=O)n1` [Example 114]: the IC50 turned out to be 4 nM. This counts as single-digit nanomolar.

Compound `COc1cc(C(=O)NC2CCOCC2)ccc1Nc1ncc(C(F)(F)F)c(NCc2ccc(C)cc2N(C)S(C)(=O)=O)n1` [Example 60] returned an IC50 of 4 nM. In other words, the single-digit nanomolar range.

Another assay addresses T2, PTK2-phosphorylation at tyrosine 397 (pY397) (Homo sapiens, UniProt Q05397).
T2 construct: endogenous in cells; host or cells: PC-3 (ATCC CRL-1435)
Briefly: Phospho-PTK2 (pY397) Assay in PC-3 cells. The format is cell-based. The note with it: PC-3 prostate carcinoma cells, 2 h incubation; read-out: PC3pPTK2 Y397 EC50. As to the method: This cellular test is used to determine the influence of PTK2-inhibitors on the state of the PTK2-phosphorylation at tyrosine 397 (pY397).
PC-3 cells (prostate carcinoma, ATCC CRL-1435) are grown in cell culture flasks (175 cm^2) with F12 Kaighn's Medium (Gibco, No.: 21127) with the addition of 10% foetal calf serum (Invitrogen, No.: 16000-044). The cultures are incubated in the incubator at 37° C. and 5% CO2 and run twice a week.
For the test, 2×10^4 cells pro well/[…] are plated out in 96-well microtitre plates (Costar, No.: 3598) and incubated overnight in the incubator at 37° C. and 5% CO2. The test compounds (10 μL from serial dilution) are added the next day. The concentration of the test compounds usually covers a range of 50 μM and 0.8 nM. The test compounds (stock solution: 10 mM in 100% DMSO) are diluted in medium/medium 10% DMSO such that the final concentration is 1% DMSO. The cells are then incubated in the incubator at 37° C. and 5% CO2 for 2 h. Then the culture supernatant is removed and the cells are fixed with 150 μL 4% formaldehyde in D-PBS for 20 min at RT. The cell lawn is washed five times with 200 μL 0.1% Triton X-100 in D-PBS for 5 min in each case and then incubated for 90 min with blocking buffer (5% skimmed milk powder (Maresi Fixmilch) in TBST (25 mM Tris/HCl, pH 8.0, 150 mM NaCl, 0.05% Tween 20). The blocking buffer is replaced by 50 μL of the first antibody anti-phospho PTK2 [pY397] rabbit monoclonal (Invitrogen/Biosource, No.: 44-625G), which is diluted 1:200 in blocking buffer. For control purposes, alternatively a PTK2 [total] antibody (clone 4.47 mouse monoclonal, Upstate, No.: 05-537), diluted 1:400 in blocking buffer is used. This incubation is carried out at 4° C. overnight. Then the cell lawn is washed five times with 100 μL of 0.1% Tween in D-PBS for 5 min in each case and 50 μL/well of second antibody are added. In order to detect bound phospho-PTK2 [pY397] antibody a goat-anti-rabbit antibody is used which is coupled with horseradish peroxidase (Dako, No.: P0448; 1:500 dilution in blocking buffer). In order to detect bound PTK2 [total]-antibodies a rabbit-anti-mouse antibody is used, which is also coupled with horseradish peroxidase (Dako, No.: PO161; 1:1000 dilution in blocking buffer). This incubation is carried out for 1 h at RT with gentle shaking. The cell lawn is then again washed five times with 100 μL of 0.1% Tween in D-PBS for 5 min in each case. […] The EC50 values are determined from concentration-activity analyses by iterative calculation with the aid of a sigmoidal curve analysis algorithm (FIFTY, based on GraphPAD Prism Version 3.03) with a variable Hill coefficient.
Take `COc1cc(C(=O)N[C@H]2CCCN(C3CCOCC3)C2)ccc1Nc1ncc(C(F)(F)F)c(NCc2ccc(C)cc2N(C)S(C)(=O)=O)n1` [Example 53]: the EC50 amounted to 0.54 nM.

In the case of `COc1cc(C(=O)NC2CCC3C(CCN3C)C2)ccc1Nc1ncc(C(F)(F)F)c(NCc2ccc(C)cc2N(C)S(C)(=O)=O)n1` (centres unmarked) [Example 26], the EC50 is 0.25 nM.

Regarding `COc1cc(C(=O)NC2CC(N3CCN(CC4CC4)CC3)C2)ccc1Nc1ncc(C(F)(F)F)c(NCc2ccc(C)cc2N(C)S(C)(=O)=O)n1` (centres unmarked) [Example 97], the EC50 was 2 nM.

Take `COc1cc(C(=O)NC2CCN(C(C)C)CC2)ccc1Nc1ncc(C(F)(F)F)c(NCc2ccc(C)cc2N(C)S(C)(=O)=O)n1` [Example 15]: the EC50 worked out at 0.18 nM.

As for `CCN(CC)CCNC(=O)c1ccc(Nc2ncc(C(F)(F)F)c(NCc3ccc(C)cc3N(C)S(C)(=O)=O)n2)c(OC)c1` [Example 12], the EC50 was 0.16 nM.

For the compound `CCc1cc(C(=O)NC2CCN(C)CC2)ccc1Nc1ncc(C(F)(F)F)c(NCc2ccc(C)cc2N(C)S(C)(=O)=O)n1` [Example 50], the EC50 worked out at 0.52 nM.

With `CC(=O)Nc1ccc(Nc2ncc(C(F)(F)F)c(NCc3ccc(C)cc3N(C)S(C)(=O)=O)n2)cc1Cl` [Example 104], the concentration for a half-maximal effect (EC50) is 2 nM.

Take `COc1ccc(CNc2nc(Nc3ccc(NC(C)=O)c(Cl)c3)ncc2C(F)(F)F)c(N(C)S(C)(=O)=O)c1` [Example 105]: the EC50 amounted to 2 nM.

For the compound `COc1cc(C(=O)NC2CCC(N(C)C)CC2)ccc1Nc1ncc(C(F)(F)F)c(NCc2ccc(C)cc2N(C)S(C)(=O)=O)n1` (centres unmarked) [Example 51], the half-maximal effective concentration (EC50) came to 0.53 nM.

As for `Cc1ccc(CNc2nc(Nc3ccc(C(=O)NC4CCN(C)CC4)cc3C)ncc2C(F)(F)F)c(N(C)S(C)(=O)=O)c1` [Example 80], the EC50 was 1 nM.

Turning to `COc1cc(C(=O)NC2CCN(C3CC3)CC2)ccc1Nc1ncc(C(F)(F)F)c(NCc2ccc(C)cc2N(C)S(C)(=O)=O)n1` [Example 38], the EC50 is 0.35 nM.

With `COc1cc(C(=O)N[C@H]2CC[C@H](N3C[C@@H](C)O[C@@H](C)C3)CC2)ccc1Nc1ncc(C(F)(F)F)c(NCc2ccc(C)cc2N(C)S(C)(=O)=O)n1` [Example 114], the EC50 was 3 nM.

Turning to `COc1cc(C(=O)NC2CCOCC2)ccc1Nc1ncc(C(F)(F)F)c(NCc2ccc(C)cc2N(C)S(C)(=O)=O)n1` [Example 60], the EC50 was found to be 0.6 nM.
